Source: patent US10047078B2, “Aminothiazole compounds” (National Health Research Institutes, priority 2016, dated 2018)

Key:
[1] = system: xenografts FLT3-ITD-D835Y model; test: Xenograft efficacy, FLT3-ITD-D835Y model; format: in vivo; settings: FLT3-ITD-D835Y xenograft in nude mice, PO 25 mg/kg
Method: (§1) Male nude mice (Nu-Fox1^nu) of 8 weeks old were purchased from BioLASCO (Taipei, Taiwan, R.O.C.). Human colorectal Colo205, pancreatic Mia-PaCa 2 tumor cells or MOLM-13, 32D-ITD/D835Y leukemia cells were inoculated subcutaneously at 1×10^6 cells each in the nude mice. All human cancer cells were detected as free of Mycoplasma spp before they were injected into animals. The tumor cells grow as xenograft tumors and the tumor size reached approximately 200-250 mm^3 in the nude mice ready for dose treatments. Test compounds were dissolved in 20% 2-hydroxypropy-β-cyclodextrin individually for oral gavage administrations to the nude mice. The tumor-bearing mice were treated with test compounds at various doses, 5 times a week for 2 weeks. Tumor sizes were measured by an electronic caliper and calculated with the formula: tumor size=length×width^2/2. Tumor size and animal body weight were measured twice a week before and after the tumor cell inoculation throughout the observation period. Uses of animals and experimental procedures thereof were approved by the Institutional Animal Care and Use Committee (IACUC) of the National Health Research Institutes.

[2] = system: xenografts FLT3-ITD-D835Y nude mice; test: In vivo toxicity study, FLT3-ITD-D835Y model; settings: PO 25 mg/kg once daily; for Mortality (nude mice n = 8): 5 on 2 off × 2
Method: as §1
(§2) Compounds of formula (I) were tested in animals for their in vivo efficacy following the procedure described in EXAMPLE 24. Nine weeks old athymic nu/nu nude mice were administered orally at a once daily dose of 25, 50, 100, or 150 mg/kg on days 1-5 and 8-12.

[3] = Pharmacokinetics and oral bioavailability in mice; settings: for AUC(0-inf) / bioavailability: male, ICR, mouse, plasma
Method: (§7) Male ICR mice weighing 25-35 g each were obtained from BioLASCO (Taiwan Co., Ltd, Ilan, Taiwan). The animal studies were performed according to the National Health Research Institutes (NHRI) institutional animal care and committee-approved procedures. […] A single dose at 10 mg/kg of each of these four compounds was administered orally (PO) to a total of 27 male mice. Each mouse was given 100 mL of the IV dosing solution by intravenous tail-vein injection and 200 mL of the PO dosing solution by oral gavage. Animals that received the IV dose were not fasted and that received the PO dose were fasted overnight prior to dosing. At 0 (immediately before dosing), 2 (IV only), 5 (IV only), 15 and 30 min and at 1, 2, 4, 6, 8, 16 and 24 h after dosing, blood (˜500 mL) was collected from groups of 3 mice at each time point by cardio puncture and stored in ice (0-4° C.). Ethylenediaminetetraacetic acid (EDTA) was used as the anticoagulant. Plasma was separated from the blood by centrifugation (3000 rpm for 15 minutes at 4° C. in a Beckman Model Allegra 6R centrifuge) and stored in a freezer (−20° C.). Control plasma was obtained from mice receiving no compound for use of constructing the standard curve and for the preparation of quality control (QC) samples. All samples were analyzed for the parent compound by LC-MS/MS.
(§8) Oral bioavailability, presented as a percentage (F %), was calculated from dividing the average area under the curve (AUC) value of a compound after PO dosing by the average AUC value of the compound after IV dosing following dose normalization.

Mia-paca2 tumor model = test: Xenograft efficacy, Mia-paca2 tumor model; format: in vivo, nude mice; settings: PO 25 mg/kg
Method: as §1

[4] = system: xenografts Mia-paca2 nude mice; test: In vivo toxicity study, Mia-paca2 model; settings: PO 25 mg/kg once daily; for Mortality (nude mice n = 6): 5 on 2 off × 2
Method: as §1, with “All human cancer cells were detected as free of Mycoplasma spp before they were injected into animals.” left out
(§3) Nine weeks old athymic nu/nu nude mice were administered orally at a once daily dose of 25, 50, 100, or 150 mg/kg on days 1-5 and 8-12.

[5] = system: xenografts MOLM-13 nude mice; test: In vivo toxicity study, MOLM-13 model; settings: for Mortality (nude mice n = 6 or 7): 5 on 2 off × 2; for Tolerability: PO once daily, Compound 2 at 25 and 50, Compound 4 at 150 mg/kg
Method: as §1, §2

MOLM-13 xenografts = test: Xenograft efficacy, MOLM-13 model; format: in vivo, nude mice; settings: starting tumor size ~250 mm^3
Method: as §1

[6] = system: xenografts colo205 nude mice; test: In vivo toxicity study, colo205 model; settings: for Mortality (nude mice n = 6): 5 on 2 off × 2; for Tolerability: PO once daily, Compounds 1, 2, 3, 4, 6 at 50, 50, 100, 150 and 25 mg/kg
Method: as §1, with “All human cancer cells were detected as free of Mycoplasma spp before they were injected into animals.” left out
as §3

Colo205 xenografts = test: Xenograft efficacy, Colo205 model; format: in vivo; settings: Colo205 xenografts in nude mice, 5 times a week for 2 weeks
Method: as §1

32D-ITD/F691L cells = test: MTS cell viability, 32D cells expressing FLT3-ITD mutant; format: cell-based, Murine; settings: 72-h incubation
Source text: (§4) The five leukemic 32D cell lines were purchased from American Type Culture Collection (ATCC, Manassas, Va., USA). Murine pro-B lymphocyte 32D cell lines were stably transfected with expression vectors that encoded human FLT3 containing an ITD mutation (32D-ITD cells), ITD and D835Y (32D-ITD/D835Y cells), ITD and D835V (32D-ITD/D835V cells), ITD and D835F (32D-ITD/D835F cells), and ITD and F691L (32D-ITD/F691L cells) mutations, which lead to constitutive activation of the FLT3 downstream signaling proteins. The cell viability was assessed with the MTS assay described in PLoS One, 2014, 9, e97116. 32D-ITD/D835Y, 32D-ITD/D835V, 32D-ITD/D835F, 32D-ITD/F691L, and 32D-ITD/F691I cells were seeded in 96-well plates at 1×10^4 cells/mL (100 μL per well) for 24-h incubation. Test compounds (at various concentrations in dimethyl sulfoxide (DMSO) were subsequently added to the culture medium for 72-h incubation. The cell viability was determined by the MTS assay (Promega, Madison, Wis., USA).

32D-ITD/F691I cells = test: as above; format: cell-based, Murine; settings: 72-h incubation
Source text: as §4

32D-ITD/D835F cells = test: as above; format: cell-based, Murine; settings: 72-h incubation
Source text: as §4

TRK A = TRK A (Homo sapiens, UniProt P04629); test: SelectScreen biochemical kinase profiling; format: binding; settings: 100 nM, read-out: Inhibition (% of control) at 100 nM
Method: (§5) Kinase inhibition data were obtained from SelectScreen® Biochemical Kinase Profiling Service.
(§6) More specifically, test compounds were screened in 160 nL of a 1% DMSO solution in the well of a 384-well plate; kinase/antibody mixtures (8 μL) were diluted to a 2-fold working concentration in an appropriate kinase buffer (3.84 μL) and a 4-fold AlexaFluor® labeled tracer (4 μL) was prepared in the kinase buffer; incubation of test solutions was conducted at room is temperature for 60 minutes; and readout on a fluorescence plate reader was recorded and analyzed.

SRC = SRC (Homo sapiens, UniProt P12931); test: SelectScreen biochemical kinase profiling; format: binding; settings: 100 nM, read-out: Inhibition (% of control) at 100 nM
Method: as §5, §6

PDGFR A = PDGFR A (Homo sapiens, UniProt P16234); test: SelectScreen biochemical kinase profiling; format: binding; settings: 100 nM, read-out: Inhibition (% of control) at 100 nM
Chain of PDGFR A (P16234 24-1089): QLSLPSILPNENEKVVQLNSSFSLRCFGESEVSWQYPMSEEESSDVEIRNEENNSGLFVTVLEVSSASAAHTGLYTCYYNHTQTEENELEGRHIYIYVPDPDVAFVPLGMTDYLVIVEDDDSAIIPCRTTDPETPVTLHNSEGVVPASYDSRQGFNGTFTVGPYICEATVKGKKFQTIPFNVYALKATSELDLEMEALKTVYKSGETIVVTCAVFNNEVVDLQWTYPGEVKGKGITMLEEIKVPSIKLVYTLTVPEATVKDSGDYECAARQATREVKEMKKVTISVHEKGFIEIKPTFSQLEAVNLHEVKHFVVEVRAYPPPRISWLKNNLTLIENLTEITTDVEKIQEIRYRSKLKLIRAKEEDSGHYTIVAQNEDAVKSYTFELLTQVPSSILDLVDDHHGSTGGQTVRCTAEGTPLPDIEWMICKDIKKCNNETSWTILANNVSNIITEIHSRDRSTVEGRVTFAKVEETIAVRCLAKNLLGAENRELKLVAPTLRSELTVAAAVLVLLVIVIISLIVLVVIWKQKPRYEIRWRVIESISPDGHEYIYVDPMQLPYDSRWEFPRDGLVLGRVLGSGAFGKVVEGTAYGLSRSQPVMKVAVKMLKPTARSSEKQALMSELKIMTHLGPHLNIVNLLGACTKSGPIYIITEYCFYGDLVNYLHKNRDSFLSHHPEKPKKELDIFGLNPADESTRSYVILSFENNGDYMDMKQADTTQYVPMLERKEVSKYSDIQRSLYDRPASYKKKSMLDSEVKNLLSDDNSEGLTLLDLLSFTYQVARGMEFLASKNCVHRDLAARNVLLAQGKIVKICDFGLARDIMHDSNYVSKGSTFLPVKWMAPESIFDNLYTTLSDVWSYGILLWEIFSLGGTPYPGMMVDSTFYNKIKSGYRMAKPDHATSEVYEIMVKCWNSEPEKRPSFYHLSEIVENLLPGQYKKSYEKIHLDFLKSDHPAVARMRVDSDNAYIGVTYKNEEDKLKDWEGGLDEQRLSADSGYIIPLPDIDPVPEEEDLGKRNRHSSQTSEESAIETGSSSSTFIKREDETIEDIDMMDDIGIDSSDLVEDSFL
Method: as §5, §6

PDGFR B = PDGFR B (Homo sapiens, UniProt P09619); test: SelectScreen biochemical kinase profiling; format: binding; settings: 100 nM, read-out: Inhibition (% of control) at 100 nM
Chain of PDGFR B (P09619 33-1106): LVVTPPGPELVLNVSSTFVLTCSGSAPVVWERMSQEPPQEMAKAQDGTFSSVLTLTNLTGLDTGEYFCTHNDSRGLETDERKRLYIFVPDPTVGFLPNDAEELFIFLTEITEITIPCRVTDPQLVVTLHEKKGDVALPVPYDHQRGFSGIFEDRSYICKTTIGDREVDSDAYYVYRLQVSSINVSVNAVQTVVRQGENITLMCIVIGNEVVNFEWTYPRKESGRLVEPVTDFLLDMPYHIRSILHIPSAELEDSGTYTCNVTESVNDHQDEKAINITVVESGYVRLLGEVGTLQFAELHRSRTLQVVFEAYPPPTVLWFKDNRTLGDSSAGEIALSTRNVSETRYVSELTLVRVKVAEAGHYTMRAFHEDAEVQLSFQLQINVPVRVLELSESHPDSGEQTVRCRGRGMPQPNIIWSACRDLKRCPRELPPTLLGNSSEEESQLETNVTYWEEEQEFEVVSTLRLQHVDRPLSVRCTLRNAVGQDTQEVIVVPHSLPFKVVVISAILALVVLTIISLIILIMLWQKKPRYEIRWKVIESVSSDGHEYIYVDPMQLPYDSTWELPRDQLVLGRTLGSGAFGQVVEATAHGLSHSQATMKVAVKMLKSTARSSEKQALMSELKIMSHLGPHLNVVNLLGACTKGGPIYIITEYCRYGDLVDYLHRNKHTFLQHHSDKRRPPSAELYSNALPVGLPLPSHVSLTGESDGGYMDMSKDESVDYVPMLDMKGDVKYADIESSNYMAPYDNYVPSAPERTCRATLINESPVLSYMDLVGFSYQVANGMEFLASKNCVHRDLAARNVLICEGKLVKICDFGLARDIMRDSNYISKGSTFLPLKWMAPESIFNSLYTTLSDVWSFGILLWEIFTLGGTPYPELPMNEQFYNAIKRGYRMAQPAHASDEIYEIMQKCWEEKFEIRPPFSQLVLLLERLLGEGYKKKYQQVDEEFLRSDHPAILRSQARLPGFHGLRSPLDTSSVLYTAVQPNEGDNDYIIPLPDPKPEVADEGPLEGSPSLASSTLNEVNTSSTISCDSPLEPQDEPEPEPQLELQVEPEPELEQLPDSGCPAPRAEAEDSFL
Method: as §5, §6

TRK B = TRK B (Homo sapiens, UniProt Q16620); test: SelectScreen biochemical kinase profiling; format: binding; settings: 100 nM, read-out: Inhibition (% of control) at 100 nM
Method: as §5, §6

DDR1 = DDR1 (Homo sapiens, UniProt Q08345); test: SelectScreen biochemical kinase profiling; format: binding; settings: 100 nM, read-out: Inhibition (% of control) at 100 nM
Chain of DDR1 (Q08345 19-913): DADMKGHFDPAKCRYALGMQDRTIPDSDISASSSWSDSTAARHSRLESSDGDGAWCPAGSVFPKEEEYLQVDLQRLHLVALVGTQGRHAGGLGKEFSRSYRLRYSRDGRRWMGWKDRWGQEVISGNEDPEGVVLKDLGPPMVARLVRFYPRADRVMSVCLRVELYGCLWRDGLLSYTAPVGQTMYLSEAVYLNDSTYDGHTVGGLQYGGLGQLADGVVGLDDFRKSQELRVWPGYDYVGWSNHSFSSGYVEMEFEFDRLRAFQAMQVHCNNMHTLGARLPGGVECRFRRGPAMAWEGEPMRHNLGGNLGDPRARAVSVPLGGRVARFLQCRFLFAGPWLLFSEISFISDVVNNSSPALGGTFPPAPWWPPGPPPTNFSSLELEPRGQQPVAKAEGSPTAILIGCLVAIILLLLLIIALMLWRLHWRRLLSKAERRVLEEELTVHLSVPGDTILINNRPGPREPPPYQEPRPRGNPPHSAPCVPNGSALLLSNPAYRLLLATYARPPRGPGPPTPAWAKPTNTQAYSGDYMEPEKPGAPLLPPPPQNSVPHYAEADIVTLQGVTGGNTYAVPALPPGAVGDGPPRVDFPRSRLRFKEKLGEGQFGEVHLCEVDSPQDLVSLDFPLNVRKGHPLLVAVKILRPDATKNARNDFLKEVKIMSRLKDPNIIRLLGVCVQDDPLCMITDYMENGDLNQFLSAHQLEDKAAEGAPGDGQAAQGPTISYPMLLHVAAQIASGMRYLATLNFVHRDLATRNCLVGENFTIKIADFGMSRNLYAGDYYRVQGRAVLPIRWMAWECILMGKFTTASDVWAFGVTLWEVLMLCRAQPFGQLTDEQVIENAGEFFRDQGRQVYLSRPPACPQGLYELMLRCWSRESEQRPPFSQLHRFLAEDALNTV
Method: as §5, §6

RET = RET (Homo sapiens, UniProt P07949); test: SelectScreen biochemical kinase profiling; format: binding; settings: 100 nM, read-out: Inhibition (% of control) at 100 nM
Chain of RET (P07949 29-1114): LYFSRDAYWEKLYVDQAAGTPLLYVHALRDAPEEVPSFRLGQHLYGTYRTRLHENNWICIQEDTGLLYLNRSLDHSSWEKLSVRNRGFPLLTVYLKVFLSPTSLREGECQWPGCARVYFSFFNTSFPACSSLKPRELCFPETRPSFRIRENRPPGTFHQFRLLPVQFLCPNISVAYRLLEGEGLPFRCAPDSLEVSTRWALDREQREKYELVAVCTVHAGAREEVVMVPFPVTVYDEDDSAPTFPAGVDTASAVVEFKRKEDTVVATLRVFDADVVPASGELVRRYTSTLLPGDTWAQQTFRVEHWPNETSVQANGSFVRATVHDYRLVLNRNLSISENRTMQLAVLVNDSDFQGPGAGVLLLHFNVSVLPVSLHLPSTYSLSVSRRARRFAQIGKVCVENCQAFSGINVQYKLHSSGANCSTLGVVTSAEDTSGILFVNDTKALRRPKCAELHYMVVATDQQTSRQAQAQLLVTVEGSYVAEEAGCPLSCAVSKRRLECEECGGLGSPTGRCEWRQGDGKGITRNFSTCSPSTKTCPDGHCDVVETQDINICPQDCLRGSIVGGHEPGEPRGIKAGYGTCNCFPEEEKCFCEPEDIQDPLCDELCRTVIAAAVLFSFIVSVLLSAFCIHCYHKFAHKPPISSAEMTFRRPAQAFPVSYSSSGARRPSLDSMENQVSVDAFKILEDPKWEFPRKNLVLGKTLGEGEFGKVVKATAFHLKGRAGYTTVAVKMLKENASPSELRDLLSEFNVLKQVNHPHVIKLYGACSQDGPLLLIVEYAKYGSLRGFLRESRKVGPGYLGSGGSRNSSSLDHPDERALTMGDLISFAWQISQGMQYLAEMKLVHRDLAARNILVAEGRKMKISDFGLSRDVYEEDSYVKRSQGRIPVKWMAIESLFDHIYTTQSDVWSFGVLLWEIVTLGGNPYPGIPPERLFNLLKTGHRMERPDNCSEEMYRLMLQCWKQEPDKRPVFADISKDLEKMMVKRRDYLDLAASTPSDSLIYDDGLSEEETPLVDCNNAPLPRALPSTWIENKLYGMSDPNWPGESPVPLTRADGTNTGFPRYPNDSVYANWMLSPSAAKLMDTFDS
Method: as §5, §6

KIT = KIT (Homo sapiens, UniProt P10721); test: SelectScreen biochemical kinase profiling; format: binding; settings: 100 nM, read-out: Inhibition (% of control) at 100 nM
Chain of KIT (P10721 26-976): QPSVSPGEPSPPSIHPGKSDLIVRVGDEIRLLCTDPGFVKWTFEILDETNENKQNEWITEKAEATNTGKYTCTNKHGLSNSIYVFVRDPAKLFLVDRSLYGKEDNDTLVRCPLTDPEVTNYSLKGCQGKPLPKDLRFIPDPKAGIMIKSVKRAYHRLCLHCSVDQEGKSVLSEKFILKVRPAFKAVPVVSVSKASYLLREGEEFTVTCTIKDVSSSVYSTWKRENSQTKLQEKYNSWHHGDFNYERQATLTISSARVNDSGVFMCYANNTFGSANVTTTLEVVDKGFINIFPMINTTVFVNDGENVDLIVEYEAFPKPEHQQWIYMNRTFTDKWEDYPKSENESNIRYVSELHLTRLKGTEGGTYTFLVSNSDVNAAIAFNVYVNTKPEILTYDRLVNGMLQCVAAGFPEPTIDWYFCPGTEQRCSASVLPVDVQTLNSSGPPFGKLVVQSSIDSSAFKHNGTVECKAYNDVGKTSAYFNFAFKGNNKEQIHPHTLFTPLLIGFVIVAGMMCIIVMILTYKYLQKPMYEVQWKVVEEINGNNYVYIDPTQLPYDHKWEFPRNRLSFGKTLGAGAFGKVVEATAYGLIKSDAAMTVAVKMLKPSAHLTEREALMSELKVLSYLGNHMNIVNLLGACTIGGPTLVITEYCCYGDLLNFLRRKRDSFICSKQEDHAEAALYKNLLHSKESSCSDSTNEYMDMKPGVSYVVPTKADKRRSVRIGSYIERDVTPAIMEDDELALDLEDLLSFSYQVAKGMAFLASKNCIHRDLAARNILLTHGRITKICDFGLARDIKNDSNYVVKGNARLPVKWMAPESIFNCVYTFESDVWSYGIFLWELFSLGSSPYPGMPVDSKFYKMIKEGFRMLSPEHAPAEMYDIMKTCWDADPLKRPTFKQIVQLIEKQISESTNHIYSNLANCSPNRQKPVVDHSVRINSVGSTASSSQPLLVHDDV
Method: as §5, §6

ABL1 T315I = ABL1 T315I (Homo sapiens, UniProt P00519, T315I); test: SelectScreen biochemical kinase profiling; format: binding; settings: 100 nM, read-out: Inhibition (% of control) at 100 nM
Method: as §5, §6

in vivo = settings: male, ICR, mouse
Method: as §7, §8

Compound	Day 12 tumor regression [1] [%]	Tolerability [2]	Mortality (nude mice n = 8) [2]	AUC(0-inf) ([3]; iv, 2 mg/kg) [ng·h/mL]	AUC(0-inf) ([3]; po, 10 mg/kg) [ng·h/mL]	bioavailability ([3]; po, 10 mg/kg) [%]	Day 18 TGI (Mia-paca2 tumor model) [%]	Tolerability [4]	Mortality (nude mice n = 6) [4]	Tolerability [5]	Tolerability [6]	GI50 (32D-ITD/F691L cells; Mus musculus, 32D, 72 h) [nM]	GI50 (32D-ITD/F691I cells; Mus musculus, 32D, 72 h) [nM]	GI50 (32D-ITD/D835F cells) [nM]	GI50 (32D-ITD/D835F cells; Mus musculus, 32D, 72 h) [nM]	inhibition at 0.1 µM (TRK A) [%]	inhibition at 0.1 µM (SRC) [%]	inhibition at 0.1 µM (PDGFR A) [%]	inhibition at 0.1 µM (PDGFR B) [%]	inhibition at 0.1 µM (TRK B) [%]	further results
CCc1cc(NC(=O)Nc2ccc(-c3cnc(Nc4cc(N5CCN(CCF)CC5)ncn4)s3)cc2)no1 [Compound 5, 1-(5-Ethylisoxazol-3-yl)-3-(4-(2-((6-(4-(2-fluoroethyl)piperazin-1-yl)pyrimidin-4-yl)amino)thiazol-5-yl)phenyl)urea]	22	well tolerated	0/8 (25 mg/kg)	2720	8240	67	65	well tolerated	0/6 (25 mg/kg)												
CCc1cc(NC(=O)Nc2ccc(-c3cnc(Nc4cc(N5CCN(CCO)CC5)ncn4)s3)cc2)no1 [Compound 4, 1-(5-Ethylisoxazol-3-yl)-3-(4-(2-((6-(4-(2-hydroxyethyl)piperazin-1-yl)pyrimidin-4-yl)amino)thiazol-5-yl)phenyl)urea]										well tolerated	well tolerated	< 20	< 20	5.5	< 6						Mortality (nude mice n = 6 or 7) ([5]; PO 150 mg/kg once daily): 0/6; Day 25 tumor size (MOLM-13 xenografts; PO 150 mpk): 193 mm^3 (150 mpk); Mortality (nude mice n = 6) ([6]; PO 150 mg/kg once daily): 0/6 (150 mg/kg); Day 18 TGI (Colo205 xenografts; PO 150 mg/kg, 150 mg/kg): ~80%; GI50 (32D-ITD/F691L cells): 12 nM; GI50 (32D-ITD/F691I cells): 19 nM
CCc1cc(NC(=O)Nc2ccc(-c3cnc(Nc4cc(N5CCN(CC)CC5)ncn4)s3)cc2)no1 [Compound 2, 1-(5-Ethylisoxazol-3-yl)-3-(4-(2-((6-(4-ethylpiperazin-1-yl)pyrimidin-4-yl)amino)thiazol-5-yl)phenyl)urea]	34	well tolerated	0/8 (25 mg/kg)	1440	2800					well tolerated	well tolerated	14	158	5.8	< 6	60	79	89	80	72	Mortality (nude mice n = 6 or 7) ([5]; PO 25 or 50 mg/kg once daily): 0/6; inhibition at 0.1 µM (DDR1): 80%; inhibition at 0.1 µM (RET): 94%; inhibition at 0.1 µM (KIT): 67%; Day 25 tumor size (MOLM-13 xenografts; PO 25 mpk): 270 mm^3; Day 25 tumor size (MOLM-13 xenografts; PO 50 mpk): 53 mm^3; F (%) oral bioavailability ([3]; mice, PO 10 mg/kg vs IV 2 mg/kg, dose normalized): 38%; Mortality (nude mice n = 6) ([6]; PO 50 mg/kg once daily): 0/6 (50 mg/kg); Day 18 TGI (Colo205 xenografts; PO 50 mg/kg, 50 mg/kg): ~80%
CCc1cc(NC(=O)Nc2ccc(-c3cnc(Nc4cc(OCCN5CCOCC5)ncn4)s3)cc2)no1 [Compound 3, 1-(5-Ethylisoxazol-3-yl)-3-(4-(2-((6-(2-morpholinoethoxy)pyrimidin-4-yl)amino)thiazol-5-yl)phenyl)urea]				2070	11400	96					well tolerated					69	66	79	92	73	inhibition at 0.1 µM (ABL1 T315I): 15%; inhibition at 0.1 µM (DDR1): 77%; inhibition at 0.1 µM (RET): 56%; inhibition at 0.1 µM (KIT): 85%; Mortality (nude mice n = 6) ([6]; PO 100 mg/kg once daily): 0/6 (100 mg/kg); Day 18 TGI (Colo205 xenografts; PO 100 mg/kg, 100 mg/kg): ~80%
CCc1cc(NC(=O)Nc2ccc(-c3cnc(Nc4cc(N5CCN(CCF)CC5)nc(C)n4)s3)cc2)no1 [Compound 6, 1-(5-Ethylisoxazol-3-yl)-3-(4-(2-((6-(4-(2-fluoroethyl)piperazin-1-yl)-2-methylpyrimidin-4-yl)amino)thiazol-5-yl)phenyl)urea]							68	well tolerated	0/6 (25 mg/kg)		well tolerated										Mortality (nude mice n = 6) ([6]; PO 25 mg/kg once daily): 0/6 (25 mg/kg); AUC(0-inf) (in vivo; iv, 2 mg/kg): 1840 ng·h/mL; AUC(0-inf) (in vivo; po, 10 mg/kg): 7580 ng·h/mL; bioavailability (in vivo; po, 10 mg/kg): 89%; Day 18 TGI (Colo205 xenografts; PO 25 mg/kg, 25 mg/kg): ~80%
